Like-named read-outs stand apart in the source and are kept apart here.
Biological target: T1, cloned human CCR8 receptor stably expressed in L1.2 cells (Homo sapiens, UniProt P51685)
T1 construct: expressed in transfected cells
Test: whole cell binding screen: inhibition of biotinylated human I309 binding to CCR8 (FMAT 8100 HTS)
Settings: biotinylated human I-309, 10 point concentration response starting at 10 μM
In short: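 Ten-point dilutions, top 10 μM final, were tested for displacing biotin-I309 from hCCR8-transfected L1.2 cells in HEPES-buffered HBSS with BSA and sodium azide, mixing 0.5 h before FMAT 8100 detection. Signals converted to percent inhibition against untreated wells and a 100 nM excess unlabeled I309 control.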

[1] = L1.2/hCCR8 cells, read-out: Ki of compounds to inhibit I-309 binding to CCR8

T1 sequence (P51685 whole entry): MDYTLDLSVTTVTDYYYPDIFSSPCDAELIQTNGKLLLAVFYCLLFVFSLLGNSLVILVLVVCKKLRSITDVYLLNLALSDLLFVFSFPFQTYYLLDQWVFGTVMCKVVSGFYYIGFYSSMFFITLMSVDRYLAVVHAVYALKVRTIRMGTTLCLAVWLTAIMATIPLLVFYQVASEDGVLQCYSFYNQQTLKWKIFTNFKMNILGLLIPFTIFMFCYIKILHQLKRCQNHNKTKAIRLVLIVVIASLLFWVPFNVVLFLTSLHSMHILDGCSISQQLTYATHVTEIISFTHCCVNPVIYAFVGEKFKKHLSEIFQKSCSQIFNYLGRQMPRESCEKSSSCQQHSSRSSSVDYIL

Ki [1] [nM] | Ki (Ki of compounds to inhibit I-309 binding to CCR8, L1.2/hCCR8 cells) [nM] | SMILES
< 1000 |  | CCOC(=O)N1CCC(NS(=O)(=O)c2cccc3c(C(=O)Nc4ccccc4)cccc23)CC1 [Compound H-27, 4-(5-Phenylcarbamoyl-naphthalene-1-sulfonylamino)-piperidine-1-carboxylic acid ethyl ester]
< 500 |  | CCOC(=O)N1CCC(NS(=O)(=O)c2cccc3c(C(=O)Nc4ccccc4C)cccc23)CC1 [Compound H-28, 4-(5-o-Tolylcarbamoyl-naphthalene-1-sulfonylamino)-piperidine-1-carboxylic acid ethyl ester]
< 500 |  | Cc1ccccc1NC(=O)c1cccc2c(S(=O)(=O)NC3CCN(C(=O)N(C)C)CC3)cccc12 [Compound H-32, 4-(5-o-Tolylcarbamoyl-naphthalene-1-sulfonylamino)-piperidine-1-carboxylic acid dimethylamide]
< 500 |  | CCOC(=O)N1CCC(NS(=O)(=O)c2cccc3c(C(=O)Nc4ccccc4Cl)cccc23)CC1 [Compound H-34, 4-[5-(2-chloro-phenylcarbamoyl)-naphthalene-1-sulfonylamino]-piperidine-1-carboxylic acid ethyl ester]
< 1000 |  | CCOC(=O)N1CCC(NS(=O)(=O)c2cccc3c(C(=O)Nc4cccnc4)cccc23)CC1 [Compound H-35, 4-[5-(Pyridin-3-ylcarbamoyl)-naphthalene-1-sulfonylamino]-piperidine-1-carboxylic acid ethyl ester]
< 500 |  | CCOC(=O)N1CCC(NS(=O)(=O)c2cccc3c(C(=O)Nc4cccc(C)c4C)cccc23)CC1 [Compound H-36, 4-[5-(2,3-Dimethyl-phenylcarbamoyl)-naphthalene-1-sulfonylamno]-piperidine-1-carboxylic acid ethyl ester]
< 500 |  | CCCC(=O)N1CCC(NS(=O)(=O)c2cccc3c(C(=O)Nc4cccc(C)c4C)cccc23)CC1 [Compound H-37, 5-(1-Butyryl-piperidin-4-ylsulfamoyl)-naphthalene-1-carboxylic acid (2,3-dimethyl-phenyl)-amide]
< 500 |  | Cc1cccc(NC(=O)c2cccc3c(S(=O)(=O)NC4CCN(C(=O)N(C)C)CC4)cccc23)c1C [Compound H-38, 4-[5-(2,3-Dimethyl-phenylcarbamoyl)-naphthalene-1-sulfonylamino]-piperidine-1-carboxylic acid dimethylamide]
< 500 |  | CCCC(=O)N1CCC(NS(=O)(=O)c2cccc3c(C(=O)Nc4ccccc4C)cccc23)CC1 [Compound H-39, 5-(1-Butyryl-piperidin-4-ylsulfamoyl)-naphthalene-1-carboxylic acid o-tolylamide]
< 30000 |  | CCOC(=O)N1CCC(NS(=O)(=O)c2cccc3c(C(=O)Nc4cccc(C)c4)cccc23)CC1 [Compound H-41, 4-(5-m-Tolylcarbamoyl-naphthalene-1-sulfonylamino)-piperidine-1-carboxylic acid ethyl ester]
< 500 |  | CCOC(=O)N1CCC(NS(=O)(=O)c2cccc3c(CNCc4ccc(Cl)cc4)cccc23)CC1 [Compound H-45, 4-{5-[(4-Chloro-benzylamino)-methyl]-naphthalene-1-sulfonylamino}-piperidine-1-carboxylic acid ethyl ester]
< 500 |  | CCOC(=O)N1CCC(NS(=O)(=O)c2cccc3c(CNC4CCCCC4)cccc23)CC1 [Compound H-46, 4-(5-Cyclohexylainnomethyl-naphthalene-1-sulfonylainino)-piperidine-1-carboxylic acid ethyl ester]
< 500 |  | COc1ccc(NS(=O)(=O)c2ccc3cccc(NC(=O)c4ccccc4)c3c2)cc1 [Compound H-47, N-[7-(4-Methoxy-phenylsulfamoyl)-naphthalen-1-yl]-benzamide]
< 30000 |  | O=C(Nc1cccc2ccc(S(=O)(=O)Nc3ccc(F)cc3)cc12)c1ccccc1 [Compound H-48, N-[7-(4-Fluoro-phenylsulfamoyl)-naphthalen-1-yl]-benzamide]
< 30000 |  | CCc1ccc(NS(=O)(=O)c2ccc3cccc(NC(=O)c4ccccc4)c3c2)cc1 [Compound H-49, N-[7-(4-Ethyl-phenylsulfamoyl)-naphthalen-1-yl]-benzamide]
< 30000 |  | CC(C)c1ccc(NS(=O)(=O)c2ccc3cccc(NC(=O)c4ccccc4)c3c2)cc1 [Compound H-50, N-[7-(4-Isopropyl-phenylsuffamoyl)-naphthalen-1-yl]-benzamide]
 | < 30000 | CCOC(=O)N1CCC(NS(=O)(=O)c2ccc3cccc(NC(=O)c4ccccc4)c3c2)CC1 [Compound H-51, 4-(8-Benzoylamno-naphthalene-2-sulfonylamino)-piperidine-1-carboxylic acid ethyl ester]
< 30000 |  | Cc1ccccc1C(=O)Nc1cc(S(=O)(=O)NC2CCN(C(=O)C(C)C)CC2)cc2c1CCCC2 [Compound H-53, N-[3-(1-Isobutyryl-piperidin-4-ylsulfamoyl)-5,6,7,8-tetrahydro-naphthalen-1-yl]-2-methyl-benzamide]

Ki [1] [nM] | Ki (Ki of compounds to inhibit I-309 binding to CCR8, L1.2/hCCR8 cells) [nM] | SMILES
< 500 |  | O=C(Nc1cc(S(=O)(=O)NC2CCCCC2)cc2c1CCCC2)c1ccccc1 [Compound H-54, N-(3-Cyclohexylsulfamoyl-5,6,7,8-tetrahydro-naphthalen-1-yI)-benzamide]
< 30000 |  | COc1ccc(NS(=O)(=O)c2cc3c(c(NC(=O)c4ccccc4)c2)CCCC3)cc1 [Compound H-55, N-[3-(4-Methoxy-phenylsulfamoyl)-5,6,7,8-tetrahydro-naphthalen-1-yl]-benzamide]
< 500 |  | CCOC(=O)N1CCC(NS(=O)(=O)c2cc3c(c(NC(=O)c4ccccc4)c2)CCCC3)CC1 [Compound H-56, 4-(4-Benzoylamino-5,6,7,8-tetrahydro-naphthalene-2-sulfonylamino)-piperidine-1-carboxylic acid ethyl ester]
< 1000 |  | CCOC(=O)N1CCC(NS(=O)(=O)c2cc3c(c(NC(=O)C4CCCCC4)c2)CCCC3)CC1 [Compound H-57, 4-[4-(Cyclohexanecarbonyl-amino)-5,6,7,8-tetrahydro-naphthalene-2-sulfonylamino]-piperidine-1-carboxylic acid ethyl ester]
< 1000 |  | Cc1ccccc1C(=O)Nc1cc(S(=O)(=O)NC2CCCCC2)cc2c1CCCC2 [Compound H-58, N-(3-Cyclohexylsulfamoyl-5,6,7,8-tetrahydro-naphthalen-1-yl)-2-methyl-benzamide]
< 1000 |  | CCOC(=O)N1CCC(NS(=O)(=O)c2cc3c(c(NC(=O)c4ccccc4C)c2)CCCC3)CC1 [Compound H-59, 4-[4-(2-Methyl-benzoylamino)-5,6,7,8-tetrahydro-naphthalene-2-sulfonylamino]-piperidine-1-carboxylic acid ethyl ester]
< 30000 |  | CCCC(=O)N1CCC(NS(=O)(=O)c2cc3c(c(N4C(=O)c5ccccc5C4=O)c2)CCCC3)CC1 [Compound H-60, 4-(1,3-Dioxo-1,3-dihydro-isoindol-2-yl)-5,6,7,8-tetrahydro-naphthalene-2-sulfonic acid (1-butyryl-piperidin-4-yl)-amide]
< 30000 |  | CCCC(=O)N1CCC(NS(=O)(=O)c2cc3c(c(NC(=O)c4ccccc4Cl)c2)CCCC3)CC1 [Compound H-63, N-[3-(1-Butyryl-piperidin-4-ylsulfamoyl)-5,6,7,8-tetrahydro-naphthalen-1-yl]-2-chloro-benzamide]
< 500 |  | CCOC(=O)N1CCC(NS(=O)(=O)c2ccc(NC(=O)c3ccccc3C)c3c2CCC3)CC1 [Compound H-64, 4-[7-(2-Methyl-benzoylamino)-indane-4-sulfonylamino]-piperidine-1-carboxylic acid ethyl ester]
< 500 |  | CCCC(=O)N1CCC(NS(=O)(=O)c2ccc(NC(=O)c3ccccc3C)c3c2CCC3)CC1 [Compound H-65, N-[7-(1-Butyryl-piperidin-4-ylsulfamoyl)-indan-4-yl]-2-methyl-benzamide]
< 1000 |  | Cc1ccccc1C(=O)Nc1ccc(S(=O)(=O)NC2CCN(C(=O)OC(C)(C)C)CC2)c2c1CCC2 [Compound H-66, 4-[7-(2-Methyl-benzoylamino)-indane-4-sulfonylamino]-piperidine-1-carboxylic acid tert-butyl ester]
< 1000 |  | Cc1ccccc1C(=O)Nc1ccc(S(=O)(=O)NC2CCNCC2)c2c1CCC2 [Compound H-67, 2-Methyl-N-[7-(piperidin-4-ylsulfamoyl)-indan-4-yl]-benzamide]
< 500 |  | CCNC(=O)N1CCC(NS(=O)(=O)c2ccc(NC(=O)c3ccccc3C)c3c2CCC3)CC1 [Compound H-69, 4-[7-(2-Methyl-benzoylamino)-indane-4-sulfonylamino]-piperidine-1-carboxylic acid ethylamide]
< 500 |  | Cc1ccccc1C(=O)Nc1ccc(S(=O)(=O)NC2CCN(C(=O)OC(C)C)CC2)c2c1CCC2 [Compound H-70, 4-[7-(2-Methyl-benzoylamino)-indane-4-sulfonylamino]-piperidine-1-carboxylic acid isopropyl ester]
< 500 |  | Cc1ccccc1C(=O)Nc1ccc(S(=O)(=O)N[C@@H]2CCN(C(=O)[C@@H]3CCCN3)C[C@H]2C)c2ccccc12 [Compound J-1, (3R,4R)-2-(S)-Methyl-N-{4-[3-methyl-1-(pyrrolidine-2-carbonyl)-piperidin-4-ylsulfamoyl]-naphthalen-1-yl}-benzamide]
< 500 |  | Cc1ccccc1C(=O)Nc1ccc(S(=O)(=O)N[C@H]2CCN(C(=O)[C@H](C)N)C[C@@H]2C)c2ccccc12 [Compound J-2, (3S, 4S)-N-{4-[1-(2-(S)-Amino-propionyl)-3-methyl-piperidin-4-ylsulfamoyl]-naphthalen-1-yl}-2-methyl-benzamide]
< 500 |  | Cc1ccccc1C(=O)Nc1ccc(S(=O)(=O)N[C@@H]2CCN(C(=O)[C@H](C)N)C[C@H]2C)c2ccccc12 [Compound J-3, (3R, 4R)-N-{4-[1-(2-(S)-Amino-propionyl)-3-methyl-piperidin-4-ylsulfamoyl]-naphthalen-1-yl}-2-methyl-benzamide]
